Laboratory results from patent US7718653B2, “Pyrimidine derivatives for inhibiting Eph receptors” (AstraZeneca AB, priority 2007, dated 2010).
Read-outs that look alike come from different tables or passages of the source.

Columns and labels:
recombinant EphA2 = target: T1, recombinant EphA2 (Homo sapiens, UniProt P29317); test: In vitro EphA2 enzyme assay (Alphascreen, phosphorylation of biotin-poly-GAT); type: biochemical
T1 construct: amino acids 591-976; Swiss-Prot Acc; No. P29317; purchased ProQinase GmbH 0368-0000-1
T1 sequence (P29317 591-976): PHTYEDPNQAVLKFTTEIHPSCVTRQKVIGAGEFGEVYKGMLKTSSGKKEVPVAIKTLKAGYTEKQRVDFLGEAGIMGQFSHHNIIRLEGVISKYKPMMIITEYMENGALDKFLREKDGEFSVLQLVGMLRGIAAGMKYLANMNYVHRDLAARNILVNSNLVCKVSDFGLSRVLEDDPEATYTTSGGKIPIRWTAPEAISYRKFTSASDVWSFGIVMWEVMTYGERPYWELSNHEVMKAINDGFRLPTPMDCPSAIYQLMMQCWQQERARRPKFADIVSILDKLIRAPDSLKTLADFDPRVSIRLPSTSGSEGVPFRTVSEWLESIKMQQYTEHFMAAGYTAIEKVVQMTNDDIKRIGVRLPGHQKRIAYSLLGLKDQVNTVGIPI
Procedure: C) In vitro EphA2 Enzyme Assay
(§1) This assay detects inhibitors of EphA2-mediated phosphorylation of a polypeptide substrate using Alphascreen™ luminescence detection technology. Briefly, recombinant EphA2 was incubated with a biotinylated-polypeptide substrate (biotin-poly-GAT) in presence of magnesium-ATP. The reaction was stopped by addition of EDTA, together with streptavidin-coated donor beads which bind the biotin-substrate containing any phosphorylated tyrosine residues. Anti-phosphotyrosine antibodies present on acceptor beads bind to phosphorylated substrate, thus bringing the donor & acceptor beads into close proximity. Subsequent excitation of the donor beads at 680 nm generated singlet oxygen species that interact with a chemiluminescer on the acceptor beads, leading to light emission at 520-620 nm. The signal intensity is directly proportional to the level of substrate phosphorylation and thus inhibition is measured by a decrease in signal.
Test compounds were prepared as 10 mM stock solutions in DMSO (Sigma-Aldrich Company Ltd, Gillingham, Dorset SP8 4XT Catalogue No. 154938) and serially diluted with 5% DMSO to give a range of test concentrations at 6× the required final concentration. […]
The resulting assay signal was determined on the Perkin Elmer EnVision plate reader. […]

recombinant EphB4 = target: T2, recombinant EphB4 (Homo sapiens, UniProt P54760); test: In vitro EphB4 enzyme assay (Alphascreen, phosphorylation of biotin-poly-GAT); type: biochemical; details: * = tested once only, read-out: EphB4 enzyme assay Mean IC50 value
T2 construct: amino acids 563-987; Swiss-Prot Acc; No. P54760; purchased ProQinase GmbH 0178-0000-3
T2 sequence (P54760 563-987): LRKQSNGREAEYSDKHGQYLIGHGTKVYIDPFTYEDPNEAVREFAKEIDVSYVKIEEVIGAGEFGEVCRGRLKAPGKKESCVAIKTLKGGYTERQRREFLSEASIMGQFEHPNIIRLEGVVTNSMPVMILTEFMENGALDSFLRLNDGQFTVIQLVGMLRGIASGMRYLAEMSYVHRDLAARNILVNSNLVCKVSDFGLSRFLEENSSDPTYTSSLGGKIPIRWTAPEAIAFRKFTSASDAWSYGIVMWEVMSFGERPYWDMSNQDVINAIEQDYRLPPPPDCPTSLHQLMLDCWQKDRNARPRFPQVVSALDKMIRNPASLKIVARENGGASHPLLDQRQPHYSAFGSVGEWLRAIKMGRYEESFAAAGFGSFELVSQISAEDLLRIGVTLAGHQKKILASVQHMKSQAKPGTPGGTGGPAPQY
Procedure: A) In vitro EphB4 Enzyme Assay
as §1, with “EphB4-mediated” for “EphA2-mediated”, “EphB4” for “EphA2”
Aqueous Compound Preparation:
Acoustic Compound Preparation:
To ensure that each well contained a total of 120 nl DMSO the wells were all backfilled as required. […] The test range of compounds was 100× the required final concentration.
Assay plates were then incubated at room temperature for 1 hour.
For assays using compounds prepared via acoustic dispensing, the assay mix was adjusted such that the final assay volume of 12 ul contained the same concentration of reagent as 10 ul of assay mix used when aqueous compounds were tested.
The plates were sealed under natural lighting conditions, wrapped in aluminium foil and incubated in the dark for a further 20 hours.
The resulting assay signal was determined on the Perkin Elmer EnVision plate reader. The minimum value was subtracted from all values, and the signal plotted against compound concentration to generate IC50 data. The method used to generate the compound dilutions was recorded with the IC50 value in the database.

[1] = Method of compound preparation: Echo (acoustic dispensing)
[2] = Method of compound preparation: Genesis (aqueous compound preparation)

Row | IC50 (recombinant EphA2) | IC50 (recombinant EphB4; [1]) | IC50 (recombinant EphB4; [2]) | Compound
1 | 566 nM | 64 nM | 817 nM | Clc1ccc2c(c1Nc1ccnc(Nc3cccc(N4CCOCC4)n3)n1)OCO2 [Example 10, N′-(5-chloro-1,3-benzodioxol-4-yl)-N-(6-morpholino-2-pyridyl)pyrimidine-2,4-diamine]
2 | 131 nM | 52 nM | 170 nM | Clc1ccc2c(c1Nc1ccnc(Nc3cc(N4CCOCC4)ccn3)n1)OCO2 [Example 9, N′-(5-chloro-1,3-benzodioxol-4-yl)-N-(4-morpholino-2-2pyridyl)pyrimidine-2,4-diamine]
3 | – | 4 nM | 445 nM | CN(c1ccnc(Nc2cc(Cl)nc(N3CCOCC3)c2)n1)c1cccc2[nH]ncc12 [Example 8, N-(2-chloro-6-morpholin-4-yl-pyridin-4-yl)-N′-(1H-indazol-4-yl)-N′-methyl-pyrimidine-2,4-diamine]
4 | – | 7 nM | 973 nM | CN(c1ccnc(Nc2cc(Cl)cc(N3CCOCC3)n2)n1)c1cccc2[nH]ncc12 [Example 6, N-(4-chloro-6-morpholin-4-yl-pyridin-2-yl)-N′-(1H-indazol-4-yl)-N′-methyl-pyrimidine-2,4-diamine]
5 | – | – | 605 nM | CN(c1ccnc(Nc2cc(N3CCOCC3)nc(N3CCOCC3)c2)n1)c1c(Cl)ccc2c1OCO2 [Example 2, N4-(5-chlorobenzo[d][1,3]dioxol-4-yl)-N2-(2,6-dimorpholinopyridin-4-yl)-N4-methylpyrimidine-2,4-diamine]
6 | – | 3 nM | 146 nM | CN(c1ccnc(Nc2ccnc(N3CCOCC3)c2)n1)c1cccc2[nH]ncc12 [Example 4, N′-(1H-indazol-4-yl)-N′-methyl-N-(2-morpholin-4-ylpyridin-4-yl)pyrimidine-2,4-diamine]
7 | – | – | 501 nM | Clc1ccc2c(c1Nc1ccnc(Nc3cc(N4CCOCC4)nc(N4CCOCC4)c3)n1)OCO2 [Example 1, N4-(5-chlorobenzo[d][1,3]dioxol-4-yl)-N2-(2,6-dimorpholinopyridin-4-yl)pyrimidine-2,4-diamine]
8 | – | – | 6440 nM | Cc1nc(Nc2nccc(Nc3c(Cl)ccc4c3OCO4)n2)cc(N2CCN(C)CC2)n1 [Example 12, N′-(5-chloro-1,3-benzodioxol-4-yl)-N-[2-methyl-6-(4-methylpiperazin-1-yl)pyrimidin-4-yl]pyrimidine-2,4-diamine]
